{"source": "patent EP2745708A1", "about": "“Antidepressant effect of ß-hydroxy-ß-methylbutyrate” (Abbott Laboratories, Inc., priority 2012, dated 2014)", "test_system": "rats", "test": "Forced swimming test (FST) in rats", "format": "in vivo", "conditions": "forced swim test, oral 250 mg/kg or 500 mg/kg body weight after pre-swim and four hours and one hour prior to 5 minute test swim, two independent experiments", "experimental": "The antidepressant effect of HMB was evaluated using the forced swimming test (FST) using the procedure described by Porsolt et al. (Eur. J. Pharmacol. 47(4). 379-91 (1978)). To begin the experiment, rats were individually placed inside vertical cylinders (height 40 cm; diameter 21.5 cm) containing 30 cm of water at 35 °C for 15 minutes (i.e., \"pre-swim). Following this pre-swim period, the rats were removed and allowed to dry in a heated enclosure before returning to their cages. The rats were then orally administered a dose of either 250 mg/kg body weight or 500 mg/kg body weight HMB.\nTwenty-four hours later, rats were submitted to the test swim, in which the rats were again placed in the cylinder for 5 minutes. Test swims were videotaped and subsequently assessed for latency to immobility, which is the point at which no movements were observed and the rat was in the \"deadman\" position (i.e., head up, tail down, front legs slightly hunched, and rear legs pointed downwards). Rats were orally administered their respective doses of either 250 mg/kg body weight or 500 mg/kg body weight of HMB four hours and one hours prior to the swim test."}
{"smiles": "CC(C)(O)CC(=O)O", "note": "[HMB, 3-hydroxy-3-methylbutanoic acid]", "values": [{"measurement": "latency to immobility", "result": "significantly increased"}]}
